In ChEMBL document CHEMBL3046266, “Synthesis of curcumin and ethylcurcumin bioconjugates as potential antitumor agents” (Med Chem Res, 2012):
Active and inactive are the calls of the source. The rule behind the calls is not given here.

Tests used:
[1] = system: LLC-PK1; test: Cytotoxicity against Sus scrofa (pig) LLC-PK1 cells by neutral red staining; assay type: cell-based
[2] = system: BT-549; test: Cytotoxicity against Homo sapiens (human) BT549 cells by neutral red staining; assay type: functional, cell-based
[3] = system: Vero; test: Cytotoxicity against Chlorocebus aethiops (African green monkey) Vero cells up to 25 uM by neutral red staining; assay type: cell-based; settings: chlorocebus sabaeus
[4] = molecular target: T1, DNA topoisomerase 1 (Homo sapiens) (UniProt P11387); test: Inhibition of Homo sapiens (human) topoisomerase 1 assessed as relaxation of supercoiled DNA up to 25 uM by agarose gel electrophoresis
T1 sequence (whole entry): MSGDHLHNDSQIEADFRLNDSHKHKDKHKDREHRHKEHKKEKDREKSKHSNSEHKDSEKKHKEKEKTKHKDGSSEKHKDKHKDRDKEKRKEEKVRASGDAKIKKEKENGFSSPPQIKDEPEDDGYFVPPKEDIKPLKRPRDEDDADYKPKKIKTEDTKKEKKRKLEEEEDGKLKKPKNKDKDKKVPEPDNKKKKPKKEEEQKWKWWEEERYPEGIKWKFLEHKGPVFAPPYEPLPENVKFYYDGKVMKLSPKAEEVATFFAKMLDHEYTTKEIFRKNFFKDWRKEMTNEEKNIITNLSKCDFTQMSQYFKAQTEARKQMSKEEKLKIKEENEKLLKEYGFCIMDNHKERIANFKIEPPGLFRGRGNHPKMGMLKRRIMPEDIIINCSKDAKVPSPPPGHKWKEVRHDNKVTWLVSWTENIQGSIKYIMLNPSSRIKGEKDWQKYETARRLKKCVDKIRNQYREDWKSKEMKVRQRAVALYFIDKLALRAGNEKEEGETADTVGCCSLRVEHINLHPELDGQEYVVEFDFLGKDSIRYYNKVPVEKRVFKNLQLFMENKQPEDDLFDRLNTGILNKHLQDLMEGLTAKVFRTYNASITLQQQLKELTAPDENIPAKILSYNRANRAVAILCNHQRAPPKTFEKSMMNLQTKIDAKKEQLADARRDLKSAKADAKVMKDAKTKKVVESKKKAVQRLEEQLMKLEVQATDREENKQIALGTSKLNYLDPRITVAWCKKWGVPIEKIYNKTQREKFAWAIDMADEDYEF

[5] = system: SK-OV-3; test: Cytotoxicity against Homo sapiens (human) SKOV3 cells up to 25 uM by neutral red staining; assay type: functional, cell-based
[6] = molecular target: DNA topoisomerase 2-alpha (Homo sapiens, UniProt P11388); test: Inhibition of Homo sapiens (human) topoisomerase 2 assessed as decatenation of KDNA by agarose gel electrophoresis
[7] = system: SK-MEL; test: Cytotoxicity against Homo sapiens (human) SK-MEL cells by neutral red staining; assay type: functional, cell-based
[8] = molecular target: T1, DNA topoisomerase 1 (Homo sapiens); test: Inhibition of Homo sapiens (human) topoisomerase 1 assessed as production of nicked DNA up to 25 uM by agarose gel electrophoresis
[9] = system: KB; test: Cytotoxicity against Homo sapiens (human) KB cells by neutral red staining; assay type: functional, cell-based
[10] = system: Vero; test: Cytotoxicity against Chlorocebus aethiops (African green monkey) Vero cells by neutral red staining; assay type: cell-based; settings: chlorocebus sabaeus
[11] = system: SK-OV-3; test: Cytotoxicity against Homo sapiens (human) SKOV3 cells by neutral red staining; assay type: functional, cell-based
[12] = system: LLC-PK1; test: Cytotoxicity against Sus scrofa (pig) LLC-PK1 cells up to 25 uM by neutral red staining; assay type: cell-based
[13] = system: KB; test: Cytotoxicity against Homo sapiens (human) KB cells up to 25 uM by neutral red staining; assay type: functional, cell-based
[14] = system: SK-MEL; test: Cytotoxicity against Homo sapiens (human) SK-MEL cells up to 25 uM by neutral red staining; assay type: functional, cell-based
[15] = system: BT-549; test: Cytotoxicity against Homo sapiens (human) BT549 cells up to 25 uM by neutral red staining; assay type: functional, cell-based

Chain of DNA topoisomerase 2-alpha (P11388 whole entry): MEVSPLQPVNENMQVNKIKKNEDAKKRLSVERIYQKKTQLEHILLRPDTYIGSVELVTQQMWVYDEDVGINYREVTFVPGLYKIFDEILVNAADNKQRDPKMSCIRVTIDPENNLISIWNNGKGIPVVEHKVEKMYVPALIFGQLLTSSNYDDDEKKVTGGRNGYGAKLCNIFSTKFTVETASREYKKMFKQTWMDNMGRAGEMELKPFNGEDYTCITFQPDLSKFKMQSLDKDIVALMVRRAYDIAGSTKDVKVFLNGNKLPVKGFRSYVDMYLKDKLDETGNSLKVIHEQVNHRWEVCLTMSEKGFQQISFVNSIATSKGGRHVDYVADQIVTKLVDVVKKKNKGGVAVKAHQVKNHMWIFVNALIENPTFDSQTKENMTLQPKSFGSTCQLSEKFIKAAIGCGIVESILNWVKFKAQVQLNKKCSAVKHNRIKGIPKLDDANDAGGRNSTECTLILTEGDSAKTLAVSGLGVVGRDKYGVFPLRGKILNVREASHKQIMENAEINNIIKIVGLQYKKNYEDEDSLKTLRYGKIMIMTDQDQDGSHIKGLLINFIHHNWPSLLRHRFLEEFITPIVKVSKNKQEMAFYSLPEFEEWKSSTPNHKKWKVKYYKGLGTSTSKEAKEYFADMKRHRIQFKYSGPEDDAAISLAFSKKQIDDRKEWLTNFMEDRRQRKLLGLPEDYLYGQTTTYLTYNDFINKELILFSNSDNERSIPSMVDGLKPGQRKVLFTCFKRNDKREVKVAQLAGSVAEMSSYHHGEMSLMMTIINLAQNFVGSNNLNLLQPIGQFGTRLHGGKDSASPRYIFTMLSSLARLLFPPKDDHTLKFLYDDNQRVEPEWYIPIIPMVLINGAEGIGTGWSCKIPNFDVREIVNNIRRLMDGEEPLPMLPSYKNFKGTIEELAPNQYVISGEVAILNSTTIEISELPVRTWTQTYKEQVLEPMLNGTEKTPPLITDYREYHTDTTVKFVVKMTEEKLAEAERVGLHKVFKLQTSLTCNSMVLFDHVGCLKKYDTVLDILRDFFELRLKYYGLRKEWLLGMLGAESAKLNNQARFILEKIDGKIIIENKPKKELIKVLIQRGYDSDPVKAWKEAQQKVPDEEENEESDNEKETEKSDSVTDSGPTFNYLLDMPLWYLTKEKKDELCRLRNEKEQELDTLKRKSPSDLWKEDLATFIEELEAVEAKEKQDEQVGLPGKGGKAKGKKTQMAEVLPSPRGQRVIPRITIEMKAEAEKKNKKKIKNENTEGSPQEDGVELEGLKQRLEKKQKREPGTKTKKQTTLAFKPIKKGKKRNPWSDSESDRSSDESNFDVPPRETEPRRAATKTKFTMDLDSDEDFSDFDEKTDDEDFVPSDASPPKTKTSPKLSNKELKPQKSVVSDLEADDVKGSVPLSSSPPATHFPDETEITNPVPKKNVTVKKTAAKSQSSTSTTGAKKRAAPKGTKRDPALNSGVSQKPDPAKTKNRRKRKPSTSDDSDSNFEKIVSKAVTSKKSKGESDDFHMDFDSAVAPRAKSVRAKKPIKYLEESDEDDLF

Row | Compound | IC50 [1] [µM] | IC50 [2] [µM] | Activity [3] | inhibition [4] | Activity [5] | IC50 [6] [µM] | IC50 [7] [µM] | inhibition [8] | IC50 [9] [µM] | IC50 [10] [µM] | IC50 [11] [µM] | Activity [12] | Activity [13] | Activity [14] | Activity [15]
1 | COc1ccc2nc(NCC(=O)Oc3ccc(/C=C/C(=O)CC(=O)/C=C/c4ccc(OC(=O)CNc5nc6ccc(OC)cc6s5)c(OC)c4)cc3OC)sc2c1 | 22.5 | 18.1 | Non-toxic | inactive | inactive | 15 | 15 | inactive | 23 |  |  |  |  |  | 
2 | COc1cc(/C=C/C(=O)CC(=O)/C=C/c2ccc(OC(=O)CNc3nnc(C)s3)c(OC)c2)ccc1OC(=O)CNc1nnc(C)s1 | 22.5 | 8.75 |  | inactive | inactive | 15 | 7.5 | inactive | 22.5 | 23 |  |  |  |  | 
3 | CCOc1cc(/C=C/C(=O)CC(=O)/C=C/c2ccc(OC(=O)CN(CCCl)CCCl)c(OCC)c2)ccc1OC(=O)CN(CCCl)CCCl | 13.8 | 11 |  | inactive |  | 3.4 | 14.5 | inactive | 21.5 | 15 | 13.5 |  |  |  | 
4 | CCOc1cc(/C=C/C(=O)CC(=O)/C=C/c2ccc(OC(=O)CNc3nnc(C)s3)c(OCC)c2)ccc1OC(=O)CNc1nnc(C)s1 | 13 | 12 |  | inactive |  | 2.7 | 12.5 | inactive | 11.5 | 11.5 | 15.8 |  |  |  | 
5 | COc1cc(/C=C/C(=O)CC(=O)/C=C/c2ccc(OC(=O)CCNc3nnc(C)s3)c(OC)c2)ccc1OC(=O)CCNc1nnc(C)s1 | 15.5 | 4.25 |  | inactive | inactive | 3 | 7.5 | inactive | 16.3 | 15 |  |  |  |  | 
6 | CCN(CC)CCNCC(=O)Oc1ccc(/C=C/C(=O)CC(=O)/C=C/c2ccc(OC(=O)CNCCN(CC)CC)c(OC)c2)cc1OC |  | 16.3 |  | inactive |  | 3 | 8.5 | inactive | 24 | 19.5 | 15.5 | Non-toxic |  |  | 
7 | COc1cccc2c1C(=O)c1c(O)c3c(c(O)c1C2=O)C[C@@](O)(C(=O)CO)C[C@@H]3O[C@H]1C[C@H](N)[C@H](O)[C@H](C)O1 [DOXORUBICIN] | 0.75 | < 0.55 |  |  |  |  | 0.55 |  | < 0.55 | > 5 | 0.8 |  |  |  | 
8 | CCOc1cc(/C=C/C(=O)CC(=O)/C=C/c2ccc(OC(=O)CNCCN(C)C)c(OCC)c2)ccc1OC(=O)CNCCN(C)C | 22 | 11.5 | Non-toxic | inactive | inactive | 4 |  | inactive |  |  |  |  | inactive | inactive | 
9 | CCCCCCC(=O)Oc1ccc(/C=C/C(=O)CC(=O)/C=C/c2ccc(OC(=O)CCCCCC)c(OCC)c2)cc1OCC [DI-O-HEPTANOYLETHYLCURCUMIN] |  |  | Non-toxic | inactive | inactive | 3 |  | inactive |  |  |  | Non-toxic | inactive | inactive | inactive
10 | CCOc1cc(/C=C/C(=O)CC(=O)/C=C/c2ccc(OC(=O)CNC34CC5CC(CC(C5)C3)C4)c(OCC)c2)ccc1OC(=O)CNC12CC3CC(CC(C3)C1)C2 |  |  | Non-toxic | inactive | inactive | 3.4 |  | inactive |  |  |  | Non-toxic | inactive | inactive | inactive
11 | CCOc1cc(/C=C/C(=O)CC(=O)/C=C/c2ccc(OC(=O)CNc3nc4ccc(OC)cc4s3)c(OCC)c2)ccc1OC(=O)CNc1nc2ccc(OC)cc2s1 |  |  | Non-toxic | inactive |  | 12 | 4.75 | inactive |  |  | 2.8 | Non-toxic | inactive |  | inactive
12 | COc1cc(/C=C/C(=O)CC(=O)/C=C/c2ccc(OC(=O)C34CC5CC(CC(C5)C3)C4)c(OC)c2)ccc1OC(=O)C12CC3CC(CC(C3)C1)C2 [DI-O-ADAMANTOYLCURCUMIN] |  |  | Non-toxic | inactive | inactive | 4.5 |  | inactive |  |  |  | Non-toxic | inactive | inactive | inactive
13 | COc1cc(/C=C/C(=O)CC(=O)/C=C/c2ccc(OC(=O)CN(CCCl)CCCl)c(OC)c2)ccc1OC(=O)CN(CCCl)CCCl | 20 | 6.75 |  | inactive | inactive | 5 | 7 | inactive | 19.5 | > 25 |  |  |  |  | 
14 | CCOc1cc(/C=C/C(=O)CC(=O)/C=C/c2ccc(OC(=O)CNCCCl)c(OCC)c2)ccc1OC(=O)CNCCCl | 6.8 | 9 |  | inactive | inactive | 4.1 | 13.3 | inactive | 12.5 | 11 |  |  |  |  | 
15 | COc1cc(/C=C/C(=O)CC(=O)/C=C/c2ccc(OC(=O)CNCCN(C)C)c(OC)c2)ccc1OC(=O)CNCCN(C)C |  | 20 | Non-toxic | inactive |  | 16 | 15 | inactive |  |  | 22.5 | Non-toxic | inactive |  | 
16 | COc1cc(/C=C/C(=O)CC(=O)/C=C/c2ccc(OC(=O)c3cccs3)c(OC)c2)ccc1OC(=O)c1cccs1 [DI-O-(2-THIENOYL)CURCUMIN] |  |  | Non-toxic | inactive | inactive | 8 |  | inactive |  |  |  | Non-toxic | inactive | inactive | inactive
